Holding throughout (test): NCI anticancer screen, dose series, 48 h
In assay [1] the test system is 786-0.
In assay [2] the test system is A549.
Assay [3] relates to ACHN.
For assay [4], the system named is CAKI-1.
Assay [5] has as its system HCC 2998.
Assay [6] has as its system HCT-116.
In assay [7] the test system is HCT-15.
The test system of assay [8] is HL-60.
For assay [9], the system named is IGROV-1.
In assay [10] the test system is K562.
Assay [11] has as its system M14.
The test system of assay [12] is OVCAR-4.
Assay [13] has as its system OVCAR-8.
Assay [14] deals with SF-268.
The subject of assay [15] is SK-MEL-5.
Assay [16] has as its system SK-OV-3.
Assay [17] relates to UACC-62.
The subject of assay [18] is RXF 393.

The source of these data is ChEMBL document CHEMBL1201862, “PubChem BioAssay data set” (2004).

Molecules are shown by their SMILES.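 48-hour exposure; five concentrations; linearly interpolated endpoints. GI50 is the concentration that inhibits growth by half.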 Activity calls are given as the source filed them. Cut-off read from the data, not from the text of the source: active = GI50 up to about 1.1 µM and inactive = higher.

Consider `N#C/C(=C\c1ccc(CP(=O)(O)O)cc1)C(N)=O`, for which the GI50 in assay [1], in [2], in assay [3], in assay [4], in assay [5] and in [6] was > 100 µM (inactive) in each case. Besides, the GI50 is above 100 µM in assay [7]; > 100 µM (inactive) in assay [8]; > 100 µM (inactive) in [9]; > 100 µM (inactive) in assay [10]; > 100 µM (inactive) in assay [11]; > 100 µM (inactive) in assay [12]. Moreover, the GI50 in [13], in [14], in assay [15], in assay [16] and in assay [17] was > 100 µM (inactive) throughout.

In the case of `O=c1ccn([C@@H]2C[C@H](CO)C[S+]([O-])C2)c(=O)[nH]1` (stereo partly specified), the GI50 in assay [1], in [2], in assay [3], in [4], in assay [5] and in assay [6] was > 100 µM (inactive) each time. Moreover, the GI50 in assay [7] is above 100 µM; in assay [8], > 100 µM (inactive); in assay [9], > 100 µM (inactive); in [10] it was > 100 µM (inactive); in [11] it was > 100 µM (inactive); in [12] it was > 100 µM (inactive). Moreover, the GI50 in assay [13], in [14], in assay [15], in assay [16] and in assay [17] was > 100 µM (inactive) in each case.

With `COc1cc([C@@H]2c3cc4c(cc3C(N)C3COC(=O)[C@@H]32)OCO4)cc(OC)c1O` (stereo partly specified), the GI50 in assay [1] is 0.537 µM (active); in assay [2], 0.337 µM (active); in [3], 0.146 µM (active); in assay [4], 0.163 µM (active); in assay [5] it was 0.249 µM (active); in [6] it was 0.33 µM (active). In addition, the GI50 was 0.324 µM in assay [7]; 0.19 µM (active) in assay [8]; 0.515 µM (active) in assay [9]; 0.225 µM (active) in [10]; 0.269 µM (active) in assay [11]; 0.71 µM (active) in assay [12]. The GI50 was 0.308 µM (active) in [13]; 0.049 µM (active) in assay [18]; 0.399 µM (active) in [14]; 0.244 µM (active) in assay [15]; 0.037 µM (active) in assay [17].

On to `COc1ccc(/C=C2\C(=O)N(NC(C)=O)c3ccccc32)cc1`, for which the GI50 in assay [1] was > 100 µM (inactive); in assay [2] it was 58.9 µM (inactive); in assay [3], > 100 µM (inactive); in assay [4] it was 43.5 µM (inactive); in assay [5], 71.6 µM (inactive); in assay [6], 63.4 µM (inactive). Moreover, the GI50 is 67.9 µM in assay [7]; > 100 µM (inactive) in assay [9]; 28.6 µM (inactive) in [10]; > 100 µM (inactive) in assay [11]; > 100 µM (inactive) in assay [12]; 48.1 µM (inactive) in [13]. Further, the GI50 in assay [14] was 80.4 µM (inactive); in assay [15], 46.2 µM (inactive); in [16], > 100 µM (inactive); in assay [17], > 100 µM (inactive).

Take `COc1cc2c(cc1O)[C@@]1(Cc3ccc(OC)c(OC)c3)CCC(=O)N1CC2`: the GI50 in assay [1], in assay [2], in assay [3], in assay [4], in assay [5] and in [6] was > 100 µM (inactive) throughout. Besides, the GI50 in assay [7] is above 100 µM; in assay [8], > 100 µM (inactive); in assay [9], > 100 µM (inactive); in [10] it was > 100 µM (inactive); in [11], > 100 µM (inactive); in [12], > 100 µM (inactive). For the same compound, the GI50 in [13], in assay [18], in assay [14], in assay [15] and in assay [17] was > 100 µM (inactive) each time.

As for `NC(CCCNc1cccc(O)c1)C(=O)O` (stereo unspecified), the GI50 in [1] is > 100 µM (inactive); in [2], > 100 µM (inactive); in [3] it was > 100 µM (inactive); in [4] it was > 100 µM (inactive); in assay [6], > 100 µM (inactive); in [7] it was above 100 µM. The GI50 in [8], in [10], in assay [11], in assay [12], in assay [13] and in assay [18] was > 100 µM (inactive) each time. The GI50 in assay [14], in assay [15], in [16] and in [17] was > 100 µM (inactive) each time.

`CC(=O)OC(CCC1(C)OC1COc1ccc(CCNC(=O)c2ccccc2)cc1)C(C)(C)OC(C)=O` (stereo unspecified): the GI50 in assay [1] was > 100 µM (inactive); in assay [2] it was 13.1 µM (inactive); in assay [3], 5 µM (inactive); in [4] it was 19 µM (inactive); in assay [6], 0.794 µM (active); in assay [7], 13.9 µM. Also, the GI50 in assay [8] was 25.7 µM (inactive); in assay [9], 39.5 µM (inactive); in assay [10], 0.752 µM (active); in assay [11], 15.1 µM (inactive); in assay [12], 19.7 µM (inactive); in assay [13], 15.7 µM (inactive). Besides, the GI50 in [18] is 16.2 µM (inactive); in assay [14], 74.8 µM (inactive); in assay [15] it was 1.1 µM (active); in assay [16], > 100 µM (inactive); in assay [17], 14.3 µM (inactive).

With `CCN(CC)CCC1CC/C(=C\c2ccc(OC)cc2)C1=O` (stereo unspecified), the GI50 was > 100 µM (inactive) in assay [1]; > 100 µM (inactive) in assay [2]; > 100 µM (inactive) in assay [3]; > 100 µM (inactive) in assay [4]; > 100 µM (inactive) in assay [5]; 87.9 µM (inactive) in [6]. Moreover, the GI50 is 38.7 µM in assay [7]; 47.8 µM (inactive) in assay [8]; > 100 µM (inactive) in [9]; 40 µM (inactive) in assay [10]; 35.5 µM (inactive) in assay [11]; > 100 µM (inactive) in assay [12]. The GI50 was > 100 µM (inactive) in assay [13]; 42.3 µM (inactive) in assay [18]; > 100 µM (inactive) in [14]; 23.6 µM (inactive) in assay [15]; 17.5 µM (inactive) in assay [17].

As for `O=C1C(=Cc2ccc([N+](=O)[O-])o2)C(=O)N(CCc2ccccc2)S(=O)(=O)N1CCc1ccccc1`, the GI50 is 20.3 µM (inactive) in assay [1]; > 100 µM (inactive) in [2]; 17.1 µM (inactive) in assay [3]; > 100 µM (inactive) in assay [5]; 16.3 µM (inactive) in [6]; 16.3 µM in [7]. Also, the GI50 in assay [8] is 12.6 µM (inactive); in [9], > 100 µM (inactive); in [10] it was 37 µM (inactive); in [11], 15.4 µM (inactive); in assay [12], 16.3 µM (inactive); in assay [13] it was 28.9 µM (inactive). Besides, the GI50 in assay [18] is 19.5 µM (inactive); in assay [14] it was 21.8 µM (inactive); in assay [15], 18.7 µM (inactive); in [16], > 100 µM (inactive); in assay [17], 16.9 µM (inactive).

For `C=C[C@@]1(O)CCCC2=C(C(=O)OCC)CC[C@]21C`, the GI50 was > 100 µM (inactive) in assay [1]; > 100 µM (inactive) in [2]; > 100 µM (inactive) in [3]; > 100 µM (inactive) in [5]; above 100 µM in assay [7]; 36.1 µM (inactive) in assay [8]. The GI50 is > 100 µM (inactive) in assay [9]; 30.8 µM (inactive) in assay [10]; 78.7 µM (inactive) in assay [11]; > 100 µM (inactive) in [13]; > 100 µM (inactive) in assay [18]; > 100 µM (inactive) in assay [14]. Besides, the results for the GI50 in assay [15] and in assay [16] were 38.1 µM (inactive) and > 100 µM (inactive), respectively.

For `Nc1ccccc1Nc1ccccc1C(=O)[O-].Nc1ccccc1Nc1ccccc1C(=O)[O-].[Zn+2]`, the GI50 in [1], in assay [2], in [3], in assay [4], in assay [5] and in assay [6] was > 100 µM (inactive) throughout. Further, the GI50 was above 100 µM in [7]; 40.6 µM (inactive) in assay [9]; 62.4 µM (inactive) in [10]; 51.4 µM (inactive) in assay [11]; > 100 µM (inactive) in assay [13]; 45.6 µM (inactive) in [14]. For the same compound, the GI50 is 91.4 µM (inactive) in assay [15], > 100 µM (inactive) in assay [16] and 25.1 µM (inactive) in [17].

Consider `CCOC(=O)Oc1c(OC)cc(C(=O)NC2CCc3cc(OC)c(OC)c(OC)c3-c3ccc(SC)c(=O)cc32)cc1OC` (stereo unspecified), for which the GI50 is 0.239 µM (active) in assay [1]; 0.428 µM (active) in assay [2]; 0.537 µM (active) in assay [3]; 0.0473 µM (active) in assay [5]; 0.0566 µM (active) in [6]; 0.445 µM in assay [7]. Further, the GI50 in assay [8] is < 0.007 µM (active); in assay [9], 0.0506 µM (active); in assay [10], < 0.007 µM (active); in assay [11], 0.138 µM (active); in assay [12], 0.789 µM (active); in [13], 0.092 µM (active). The GI50 in assay [14] is 0.0916 µM (active); in assay [15], 0.0456 µM (active); in assay [16], 0.0513 µM (active); in assay [17], 0.0528 µM (active).
